Assay results: patent US11759433B2, “Compositions and methods for regulating the endocannabinoid system” (Sytheon Ltd, priority 2019, dated 2023)
Read-outs that look alike come from different tables or passages of the source.

What was measured:
[1] = biological target: T1, Fatty Acid Amide Hydrolase (FAAH) (Homo sapiens, UniProt O00519); assay: FAAH inhibitor screening assay (Cayman kit); assay type: biochemical
T1 construct: purchased Cayman 10005196
T1 sequence (O00519 1-579): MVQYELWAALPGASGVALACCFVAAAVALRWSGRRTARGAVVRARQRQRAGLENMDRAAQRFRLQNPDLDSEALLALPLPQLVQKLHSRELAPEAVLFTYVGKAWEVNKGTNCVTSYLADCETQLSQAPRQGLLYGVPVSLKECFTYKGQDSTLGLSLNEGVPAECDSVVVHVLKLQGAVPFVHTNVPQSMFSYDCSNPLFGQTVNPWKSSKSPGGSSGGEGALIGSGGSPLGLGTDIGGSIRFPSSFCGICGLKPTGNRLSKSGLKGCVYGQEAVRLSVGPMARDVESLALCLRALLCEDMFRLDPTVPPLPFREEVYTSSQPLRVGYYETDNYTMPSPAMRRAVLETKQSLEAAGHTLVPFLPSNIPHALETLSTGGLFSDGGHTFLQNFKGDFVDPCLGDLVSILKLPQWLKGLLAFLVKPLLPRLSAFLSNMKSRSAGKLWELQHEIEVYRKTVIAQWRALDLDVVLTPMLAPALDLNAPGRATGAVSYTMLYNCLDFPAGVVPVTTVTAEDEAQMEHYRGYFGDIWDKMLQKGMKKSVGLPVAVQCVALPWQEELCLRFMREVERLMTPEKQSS
Protocol: A 0.01 gram of sample of each of the indicated Test Samples identified in Table 3 was dissolved in 1 mL DMSO to make stock solution. […] The analysis was done following FAAH inhibitor screening assay kit (Cayman cat #10005196) protocol.

[2] = biological target: T2, Monoacyl Glycerol Lipase (MAGL) (Homo sapiens, UniProt Q99685); assay: Monoacyl Glycerol Lipase (MAGL) inhibitory activity; assay type: biochemical
T2 construct: purchased Cayman 10007812
T2 sequence (Q99685 1-303): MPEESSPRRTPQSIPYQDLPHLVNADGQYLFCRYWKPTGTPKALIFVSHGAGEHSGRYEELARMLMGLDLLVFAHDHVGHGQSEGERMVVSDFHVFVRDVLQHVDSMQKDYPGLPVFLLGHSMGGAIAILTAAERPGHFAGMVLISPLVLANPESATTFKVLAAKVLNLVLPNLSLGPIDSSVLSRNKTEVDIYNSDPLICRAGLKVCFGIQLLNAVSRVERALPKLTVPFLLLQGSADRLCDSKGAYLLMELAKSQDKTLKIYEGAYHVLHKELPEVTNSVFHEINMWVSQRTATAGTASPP
Protocol: A 0.1 gram of sample of each of the indicated Test Samples identified in Table 3 was dissolved in 1 mL DMSO to make stock solution. […] Final concentration in well: 10 μL of sample, 5.6 mU MAGL (Cayman cat. #10007812), and 23.6 μM 2Arachidonoyl Glycerol (Cayman cat. #62160). This study was done by following the protocol described by J L Blankman et al. (Blankmann et., A comprehensive profile of brain enzymes that hydrolyze the endocannabinoid 2-Arachidonyl glycerol, Chem & Biol, 14(12); 1347-1356, 2007).

[3] = biological target: T3, Fatty Acid Binding Protein 5 (FABP5) (Homo sapiens, UniProt Q01469); assay: Fatty Acid Binding Protein 5 inhibitory activity (FABP-5 ELISA kit)
T3 construct: purchased Raybiotech 268-10276-1
Protocol: 0.1 gram of sample of each of the indicated Test Samples identified in Table 3 was dissolved in 1 mL DMSO and diluted with Diluent C from the FABP-5 ELISA Kit (Raybiotech #ELH-FABP5) to a make stock solution of 800 μg/ml. […] 50 μl of sample and 50 μl of 200 ng/ml of FABP-5 (Raybiotech #268-10276-1) was added per well for the analysis. The analysis was done following protocol of the aforementioned kit.

Cortisol = Cortisol output in RHE-conditioned medium; assay type: cell-based, Human; conditions: for Cortisol (% Control): 2 mg/cm^2 on RHE; for Cortisol (% Control) / Cortisol std MTT (% Control): 48 h; for Cortisol std MTT (% Control): standardised to MTT tissue viability
Protocol: (§1) A series of tests were conducted to assess the impact of the compositions according to the present teaching on the stress biomarkers cortisol and interleukin-8 8). The compounds and compositions to be evaluated were stored at room temperature prior to use and, for use, were solubilized in caprylic acid/caprylic triglycerides. The tests were conducted using reconstituted human epithelium-conditioned medium. Reconstituted Human Epidermis tissues were obtained from Zen-Bio (Research Triangle, NC; order #51500) and were stored o/n at 4° C. The following day the tissues were transferred to 6 well plates and allowed to equilibrate for 4 h in the medium provided by the manufacturer (ZenSkin RHE Assay Medium, lot #031620). Thereafter the medium was change with fresh medium and the Test Materials, as identified in Table 4, applied to the tissue samples in an amount of 2 mg/cm^2 with a positive displacement pipette and spread evenly on top of the tissues. The solvent was used as the negative control.
Cortisol—After 48 h of incubation, the cortisol output in the cell culture conditioned medium was measured with the Cortisol Parameter Assay Kit from RnD (Minneapolis, MN cat. #KGE008B), while tissue viability was assessed by the MTT technique, using the manufacturer's protocol and reagents.
(§2) In both studies the statistical significance was assessed with two-tail Student test. Deviations of ≥15% as compared to water control with p values below 0.05 were considered statistically significant.

IL-8 = IL-8 output in RHE-conditioned medium (sandwich ELISA); assay type: cell-based, Human; conditions: for IL-8 (% Control): 2 mg/cm^2 on RHE; for Effect on level of IL-8, in words: tissue culture conditioned medium
Protocol: as §1
IL-8—Similarly, interleukin-8 (IL-8) output in the cell culture conditioned medium was measured by sandwich ELISA using antibody pair from Invitrogen (ThermoFisher, kit cat. #CHC1303) and antibody pair from BioLegend (cat. #501101 and #501201), respectively. All colorimetric measurements were performed using Molecular Devices microplate reader MAX190 and SoftMax3.1.2PRO software.
as §2

[4] = read-out: FAAH IC50 (converted)
[5] = read-out: MAGL IC50 (converted)

T3 sequence (Q01469 whole entry): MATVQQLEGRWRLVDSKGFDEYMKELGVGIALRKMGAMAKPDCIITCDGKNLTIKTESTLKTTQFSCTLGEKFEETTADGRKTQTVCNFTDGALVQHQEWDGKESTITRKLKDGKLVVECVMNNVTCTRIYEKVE

C=C[C@@](C)(/C=C/c1ccc(O)cc1)CCC=C(C)C [Bakuchiol]
IC50 [1, 4]: 6.71 µM
IC50 [2, 5]: 183 µM
IC50 [3]: 449 µM
Cortisol (% Control) (Cortisol; 0.1%): 51 % Control
Cortisol std MTT (% Control) (Cortisol; 0.1%): 56 % Control
Cortisol (% Control) (Cortisol; 0.25%): 64 % Control
Cortisol std MTT (% Control) (Cortisol; 0.25%): 87 % Control
Cortisol (% Control) (Cortisol; 0.5%): 54 % Control
Cortisol std MTT (% Control) (Cortisol; 0.5%): 79 % Control
IL-8 (% Control) (IL-8; 0.1%): 92 % Control
IL-8 (% Control) (IL-8; 0.25%): 92 % Control
IL-8 (% Control) (IL-8; 0.5%): 86 % Control
Effect on level of IL-8, in words (IL-8): marginal effect in reducing

C=C(C)[C@@H]1CCC(C)=C[C@H]1c1c(O)cc(CCCCC)cc1O [Cannabidiol 99, Cannabidiol]
IC50 ([1]; FAAH IC50): 99.5 µM
IC50 [2]: 13100 µM
Cortisol (% Control) (Cortisol; 0.1%): 72 % Control
Cortisol std MTT (% Control) (Cortisol; 0.1%): 82 % Control
Cortisol (% Control) (Cortisol; 0.5%): 84 % Control
Cortisol std MTT (% Control) (Cortisol; 0.5%): 95 % Control
Cortisol (% Control) (Cortisol; 1%): 134 % Control
Cortisol std MTT (% Control) (Cortisol; 1%): 174 % Control
Effect on level of cortisol, in words (Cortisol; higher levels): increased the cortisol level
Effect on level of cortisol, in words (Cortisol; low levels): modest decrease in cortisol
IL-8 (% Control) (IL-8; 0.1%): 103 % Control
IL-8 (% Control) (IL-8; 0.5%): 107 % Control
IL-8 (% Control) (IL-8; 1%): 108 % Control
Effect on level of IL-8, in words (IL-8): no effect or marginally increased

CCCCC/C=C\C/C=C\CCCCCCCC(=O)OCC [Ethyl Linoleate 98, Ethyl linoleate]
IC50 [1, 4]: 3.6 µM

CCCCC/C=C\C/C=C\CCCCCCCC(=O)OCC [Ethyl Linoleate (Synovea ® EL), Ethyl linoleate]
IC50 [1, 4]: 9.81 µM
IC50 [2, 5]: 7710 µM
IC50 [3]: 1490 µM
